Data from ChEMBL document CHEMBL1150176, “Majorenolide and majorynolide: a new pair of cytotoxic and pesticidal alkene-alkyne delta-lactones from Persea major” (J Nat Prod, 1989).
Values after ≈ are worked out from the molar mass of the structure shown. Active and inactive are the calls of the source. The calls are words filed in the database; no cut-off is given here.

Key:
[1] = system: Aphis gossypii; assay: Pesticidal activity against melon aphid at 400 ppm; format: functional
[2] = system: A549; assay: Cytotoxicity against human A549 cells; format: functional; settings: read-out: ED50 (the source's name)
[3] = system: HT-29; assay: Cytotoxicity against human HT-29 cells; format: functional; settings: read-out: ED50 (the source's name)
[4] = system: Diabrotica undecimpunctata; assay: Pesticidal activity against southern corn rootworm at 300 ppm; format: functional, organism-based; settings: howardi
[5] = system: Artemia; assay: Toxicity against brine shrimp; format: organism-based; settings: in vivo
[6] = system: Haemonchus contortus; assay: Nematicidal activity against Haemonchus contortus; format: functional
[7] = system: Agrobacterium tumefaciens; assay: Antitumor activity against Agrobacterium tumefaciens-induced crown gall tumors in potato tuber by potato disk test; format: functional
[8] = system: Tetranychus urticae; assay: Pesticidal activity against two spotted spider mite at 400 ppm; format: functional
[9] = system: Culicidae; assay: Pesticidal activity against mosquito larvae at 10 ppm; format: functional
[10] = system: Spodoptera eridania; assay: Pesticidal activity against southern armyworm at 5000 ppm; format: functional, organism-based
[11] = system: MCF7; assay: Cytotoxicity against human MCF7 cells; format: functional; settings: read-out: ED50 (the source's name)
[12] = system: Calliphoridae; assay: Pesticidal activity against blowfly; format: functional
[13] = system: Aphis gossypii; assay: Pesticidal activity against melon aphid at 10 ppm; format: functional

For C#CCCCCCCCCC/C=C1\CC(CO)OC1=O (centres undefined) [MAJORYNOLIDE], the Activity [1] was 0%, the EC50 [2] was 4.64 µg/mL (≈ 16.7 µM) and the EC50 [3] was 13.8 µg/mL (≈ 49.6 µM). For the same compound, the Activity [4] was “inactive”, the LC50 [5] was 0.89 ppm and the Activity [6] was 0.1%. The “inhibition (INH)” value [7] was 46%, the Activity [8] was 0% and the Activity [9] was 0%. For the same compound, the Activity [10] was “inactive”, the EC50 [11] was 9.56 µg/mL (≈ 34.3 µM) and the Activity [12] was 1%.

C=CCCCCCCCCC/C=C1\CC(CO)OC1=O (centres undefined) [MAJORENOLIDE] was tested, and the Activity [13] was 80%, the EC50 [2] was 1.7 µg/mL (≈ 6.06 µM) and the EC50 [3] was 2.61 µg/mL (≈ 9.31 µM). For the same compound, the Activity [4] was “inactive”, the LC50 [5] was 0.36 ppm and the Activity [6] was 0.1%. For the same compound, the “inhibition (INH)” value [7] was 86%, the Activity [8] was 0% and the Activity [9] was 20%. The Activity [10] was “inactive”, the EC50 [11] was 2.58 µg/mL (≈ 9.2 µM) and the Activity [12] was 1%.
